Reference: PubChem BioAssay AID651630 (Sanford-Burnham Center for Chemical Genomics, 2012)
Calls of active or inactive are those of the source.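 The calls were made as follows: active = lipid-stain IC50 at or below a set limit, with nuclear-stain toxicity IC50 at least five times higher; inactive = the rest.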

What was measured:
DAPI = experiment: triacylglycerol accumulation inhibitor potency, dose response, cell-based, panel, Nile Red and DAPI fluorescence, H9c2 (AID 651630); conditions: H9c2 cells, DAPI nuclear fluorescence (cytotoxicity counter-readout), oleic acid;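 also: cells exposed to compound overnight before fixation and staining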
TAG = experiment: as above; conditions: H9c2 cells, Nile Red TAG fluorescence, oleic acid

SMILES	IC50 cytotoxicity (DAPI nuclear signal decrease) (DAPI; mean of runs)	IC50 cytotoxicity (DAPI nuclear signal decrease) (DAPI; run 1) [µM]	IC50 cytotoxicity (DAPI nuclear signal decrease) (DAPI; run 2) [µM]	IC50 (TAG; mean of runs)	IC50 (TAG; run 1) [µM]	IC50 (TAG; run 2) [µM]
Cc1nn2c(NCc3ccccn3)c3c(nc2c1-c1ccccc1)CCC3	> 25 µM (inactive)	> 25	> 25	> 25 µM (inactive)	> 25	> 25
Cc1cccc2c(N=Nc3ccc(S(=O)(=O)Nc4ccc(Cl)cc4)cc3[N+](=O)[O-])c(O)[nH]c12	> 25 µM (inactive)	> 25	> 25	12.2 µM	16.5	7.89
COC(=O)c1ccc(/C=C/c2c(-c3ccsc3)oc3ccc(N4CCOCC4)cc23)cc1	> 25 µM (inactive)	> 25	> 25	16.9 µM (inactive)	25	8.72
COc1ccc(-c2sc3cc4c(cc3c2C#Cc2ccc(N)cc2)OCO4)cc1	> 25 µM (inactive)	> 25	> 25	> 25 µM (inactive)	> 25	> 25
COc1ccc(-c2cc(NC=O)c3ncc(-c4cc(OC)c(OC)c(OC)c4)n3c2)c(OC)c1	> 25 µM (inactive)	> 25	> 25	> 25 µM (inactive)	> 25	> 25
CCCCN1C(=O)/C(=C/C=C2/C=Cc3ccccc3N2CC)SC1=S		> 25	> 25	4.3 µM	2.4	6.2
O=C(Nc1ccc(-c2csc(Nc3ccccc3)n2)cc1)c1cccc(C(F)(F)F)c1	> 25 µM (inactive)	> 25	> 25		15.3	> 25
C[C@H](CO)N1C[C@H](C)[C@@H](CN(C)Cc2ccc(-c3ccccc3)cc2)Oc2c(NC(=O)Cc3ccccc3)cccc2C1=O	> 25 µM (inactive)	> 25	> 25	11.3 µM	12.4	10.2
CCCCNc1c(-c2ccc(-c3ccc(C(C)=O)cc3)c(OC)c2)nc2cc(C)ccn12	> 25 µM (inactive)	> 25	> 25		> 25	22.5
O=C(CCC1CCCCC1)NCCN1C2=NC[C@@H](Cc3ccccc3)N2C[C@H]1Cc1ccc(O)cc1	> 25 µM (inactive)	> 25	> 25	> 25 µM (inactive)	> 25	> 25
O=C(N/N=C/c1ccc(Cl)cc1)c1sccc1OCc1ccc(F)cc1	> 25 µM (inactive)	> 25	> 25	> 25 µM (inactive)	> 25	> 25
Cc1cc(NC(=O)CSc2nc(C(C)C)nc3sc4c(c23)CCC(C)C4)no1 (centres undefined)	> 25 µM (inactive)	> 25	> 25	> 25 µM (inactive)	> 25	> 25
CCCCC(CC)C(=O)Nc1cc(C(=O)NCc2ccc(C)cc2)ccc1N1CCC2(CC1)CC(c1ccccc1)=NO2 (centres undefined)		> 25	> 25	3.47 µM	3.44	3.5
Nc1ccc(C#Cc2c(-c3ccsc3)oc3ccc(N4CCOCC4)cc23)cc1	> 25 µM (inactive)	> 25	> 25	11.4 µM	10.8	11.9
Cn1nc(-c2ccc(Cl)cc2)c2cc(C(=O)NC3CC3)sc21	> 25 µM (inactive)	> 25	> 25	10.8 µM	13	8.58
COc1ccc(-c2sc3ccc(N4CCOCC4)cc3c2C#CCCO)cc1	> 25 µM (inactive)	> 25	> 25	> 25 µM (inactive)	> 25	> 25
CCOc1ccc(NC(=O)CN(C)C(=O)c2cc(-c3ccc(OC)cc3)nc3ccccc23)cc1OCC	> 25 µM (inactive)	> 25	> 25	10.1 µM	9.04	11.1

SMILES	IC50 cytotoxicity (DAPI nuclear signal decrease) (DAPI; mean of runs)	IC50 cytotoxicity (DAPI nuclear signal decrease) (DAPI; run 1) [µM]	IC50 cytotoxicity (DAPI nuclear signal decrease) (DAPI; run 2) [µM]	IC50 (TAG; mean of runs)	IC50 (TAG; run 1) [µM]	IC50 (TAG; run 2) [µM]
O=C(Nc1cc2c3c(c1)C1CCCC1CN3CC1CCCC21)c1ccc([N+](=O)[O-])cc1 (centres undefined)	> 25 µM (inactive)	> 25	> 25	12.3 µM	11.3	13.2
CCOC(=O)c1cc(CC)sc1NC(=O)c1cc([N+](=O)[O-])ccc1N1CCOCC1	> 25 µM (inactive)	> 25	> 25	> 25 µM (inactive)	> 25	> 25
COc1cc2c3c(c1)c(C1=NC(=S)NC1=O)c(O)n3C(C)(C)C=C2C	> 25 µM (inactive)	> 25	> 25	6 µM	6.7	5.3
CCCCCc1cc(=O)oc2c(C(CCN(CC)CC)c3ccc(N(C)C)cc3)c(OC)cc(OC)c12 (centres undefined)	> 25 µM (inactive)	> 25	> 25		> 25	17.5
COc1cccc(/C=C/C(=C2\C(=O)N(c3ccccc3)N=C2C)c2ccc(Br)cc2)c1OC	> 25 µM (inactive)	> 25	> 25	5.18 µM	5.94	4.43
O=C(N/N=C/c1cn(-c2ccccc2)nc1-c1cc2ccccc2o1)c1c[nH]c2ccccc12	> 25 µM (inactive)	> 25	> 25	13.1 µM	14.7	11.5
CCOC(=O)[C@H]1[C@H]2COc3ccc(Cl)cc3[C@@H]2N2C(=O)c3cc(Cl)ccc3NC(=O)[C@@]12C	> 25 µM (inactive)	> 25	> 25	9.03 µM	11.6	6.41
N#CC1=C(N)Oc2cc(Nc3ccccc3)ccc2C1c1ccncc1 (centres undefined)		23.2	> 25		19.8	> 25
Cc1cc(NC(=O)CC2CCCC2)n(-c2nc3ccccc3[nH]2)n1	> 25 µM (inactive)	> 25	> 25		> 25	11.2
COC(=O)Nc1nc2ccc(SC(C)C)cc2[nH]1	> 25 µM (inactive)	> 25	> 25		> 25	13.9
Cc1ccc2nc3n(c(=O)c2c1)-c1cc2ccccc2cc1C(=O)NC3Cc1ccc(O)cc1 (centres undefined)	> 25 µM (inactive)	> 25	> 25		24.9	> 25
C[C@H](O)[C@@H]1CN2CCc3c([nH]c4ccc(-c5ccc6c(c5)OCO6)cc34)[C@@H]2C[C@@H]1N(C)C(=O)Nc1cc(Cl)cc(Cl)c1	> 25 µM (inactive)	> 25	> 25	18.2 µM (inactive)	11.9	24.5
CCn1ncc(/C=N/N=C2\CCC3C4CCc5cc(O)ccc5C4CCC23C)c1C (centres undefined)	> 25 µM (inactive)	> 25	> 25	> 25 µM (inactive)	> 25	> 25
CN(C)CCCn1c(=O)n(C2CCCCC2)c(=O)c2c3c(sc21)CCCCC3	> 25 µM (inactive)	> 25	> 25	> 25 µM (inactive)	> 25	> 25
O=C(CCl)Nc1cc2[nH]c(=O)[nH]c2cc1Br	15 µM (inactive)	11.7	18.3	9.37 µM	5.97	12.8
CN(C)CCNC(=O)c1cccc2ccc(-c3ccc(-c4ccccc4)cc3)nc12	> 25 µM (inactive)	> 25	> 25	12.5 µM	10.6	14.4
COc1cc(NC(=O)c2csc(N)n2)cc(C(=O)Nc2cccc(C(F)(F)F)c2)c1	> 25 µM (inactive)	> 25	> 25	13.5 µM	10.7	16.4
